What was measured:
[1] = test system: CCR2 expressing cells (CD11b+Ly6c+Hi) in peripheral blood; assay: In vivo depletion assay, flow cytometry of peripheral blood (Example 201); design: species or system human CCR2 knock-in mice (C57 background); details: hCCR2 knock-in mice, IV 0.1 mpk compound + 10 mpk anti-cotinine antibody (SEQ ID NO: 13/14), peripheral blood at 48 hr
How it was run: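 Mice dosed with compound formulated in saline/DMSO/PBS, with anti-cotinine antibody (rabbit variable region, mouse IgG2a Fc) where required, pre-incubated 30 min at room temperature. Terminal peripheral blood RBC-lysed, Fc-blocked, stained for CD45, CD3, CD11b, Ly6C, human CCR2 and 7AAD; percent depletion of CD11b+Ly6c+Hi cells determined by flow cytometry.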

[2] = biological target: anti-cotinine antibody (SEQ ID NO: 11/12, rabbit variable region with human IgG1 Fc DE mutation); assay: SPR binding of anti-cotinine antibody to ARM compounds, Biacore T200, 37° C. (Example 202); details: SPR Biacore T200, 37° C., pH 7.4, antibody SEQ ID NO: 11/12 captured on protein A; Kd in molar
How it was run: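 Antibody captured on a protein A chip; ARM compounds injected at 100 μL/min (200 s association, 2000 s dissociation), 3-fold 5-point series from 200 nM, at 37 °C in HEPES pH 7.4 buffer with 0.005% P20 and 1% DMSO. Double-referenced sensorgrams fit 1:1 for kon, koff, Kd (koff/kon), residence time (1/koff); pKd averaged across runs.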

[3] = biological target: human alpha1 nicotinic acetylcholine (nACh) receptor (Homo sapiens, UniProt P02708); assay: Nicotinic acetylcholine receptor antagonism assay, IONFlux automated patch clamp (Example 203); format: cell-based; details: for IC50: antagonism of ACh-stimulated human alpha1 nAChR current, patch clamp
How it was run: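 Cells expressing human α1 nAChR were incubated with a compound dose response (top 10 μM or 100 μM), then stimulated with ACh (10 mM), and peak current was read by automated patch clamp. % inhibition was taken against ACh-alone control, corrected for vehicle and run-down, and fit non-linearly for IC50; runs were averaged.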

Chain of human alpha1 nicotinic acetylcholine (nACh) receptor (P02708 21-457): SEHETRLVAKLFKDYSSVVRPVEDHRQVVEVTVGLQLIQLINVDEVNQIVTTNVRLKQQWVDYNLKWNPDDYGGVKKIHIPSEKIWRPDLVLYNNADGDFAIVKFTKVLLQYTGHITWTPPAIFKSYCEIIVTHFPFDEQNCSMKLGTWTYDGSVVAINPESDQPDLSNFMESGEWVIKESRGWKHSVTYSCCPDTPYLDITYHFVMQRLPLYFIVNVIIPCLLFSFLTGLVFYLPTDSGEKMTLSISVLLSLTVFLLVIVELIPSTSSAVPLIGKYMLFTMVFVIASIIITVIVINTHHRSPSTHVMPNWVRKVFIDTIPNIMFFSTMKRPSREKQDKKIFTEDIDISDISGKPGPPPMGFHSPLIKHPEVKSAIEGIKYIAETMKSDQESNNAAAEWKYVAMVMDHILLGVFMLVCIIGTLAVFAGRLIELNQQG
Chain of human alpha1 nicotinic acetylcholine (nACh) receptor (P11230 24-501 partner): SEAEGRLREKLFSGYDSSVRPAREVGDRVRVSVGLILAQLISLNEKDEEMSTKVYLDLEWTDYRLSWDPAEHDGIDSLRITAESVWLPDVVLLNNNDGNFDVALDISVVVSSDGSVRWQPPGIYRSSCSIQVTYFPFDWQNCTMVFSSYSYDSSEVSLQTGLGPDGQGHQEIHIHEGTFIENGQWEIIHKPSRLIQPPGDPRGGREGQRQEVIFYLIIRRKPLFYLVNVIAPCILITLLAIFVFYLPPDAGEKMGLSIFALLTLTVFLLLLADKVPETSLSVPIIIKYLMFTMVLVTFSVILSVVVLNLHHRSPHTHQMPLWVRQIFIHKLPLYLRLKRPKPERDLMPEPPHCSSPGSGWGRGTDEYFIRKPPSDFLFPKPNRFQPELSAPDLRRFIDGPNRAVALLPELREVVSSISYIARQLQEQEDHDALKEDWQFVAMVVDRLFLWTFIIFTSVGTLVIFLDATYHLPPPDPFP
Chain of human alpha1 nicotinic acetylcholine (nACh) receptor (Q07001 22-517 partner): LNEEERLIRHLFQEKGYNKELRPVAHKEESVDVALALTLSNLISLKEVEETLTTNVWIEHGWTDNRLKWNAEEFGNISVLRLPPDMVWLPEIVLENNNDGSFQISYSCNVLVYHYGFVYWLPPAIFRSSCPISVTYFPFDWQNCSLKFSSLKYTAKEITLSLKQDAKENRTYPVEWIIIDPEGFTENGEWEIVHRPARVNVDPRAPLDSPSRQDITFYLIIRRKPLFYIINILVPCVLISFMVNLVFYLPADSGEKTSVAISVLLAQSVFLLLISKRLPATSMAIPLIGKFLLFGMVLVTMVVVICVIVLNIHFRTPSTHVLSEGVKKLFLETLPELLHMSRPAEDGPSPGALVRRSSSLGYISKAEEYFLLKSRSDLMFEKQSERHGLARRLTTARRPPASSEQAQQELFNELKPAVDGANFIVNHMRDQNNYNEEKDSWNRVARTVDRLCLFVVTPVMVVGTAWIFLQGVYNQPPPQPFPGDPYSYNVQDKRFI

Row | Structure (SMILES) | % Depletion of CCR2 expressing cells [1] | pKd of Antibody for ARM Compound of Formula (I) [2] | IC50 [3] | Emax at 10 µM ([3]; maximum percentage antagonism at maximum concentration tested 10 μM, read-out: Maximum Response) | Emax at 100 µM ([3]; maximum percentage antagonism at maximum concentration tested 100 μM, read-out: Maximum Response)
1 | CC(C)N(C)[C@@H]1CC[C@H](N2CC[C@H](Nc3ncnc4ccc(C(F)(F)F)cc34)C2=O)[C@H](NC(=O)CCCN2CCC3(CCN(CCCNC(=O)[C@H]4CC(=O)N(C)[C@@H]4c4cccnc4)CC3)CC2)C1 [Example 191, (2S,3S)-N-(3-(9-(4-(((1R,2S,5R)-5-(Isopropyl(methyl)amino)-2-((S)-2-oxo-3-((6-(trifluoromethyl)quinazolin-4-yl)amino)pyrrolidin-1-yl)cyclohexyl)amino)-4-oxobutyl)-3,9-diazaspiro[5.5]undecan-3-yl)propyl)-1-methyl-5-oxo-2-(pyridin-3-yl)pyrrolidine-3-carboxamide] | 69% | 9.68 | 2950 nM | 74% | –
2 | CC(C)N(C)[C@@H]1CC[C@H](N2CC[C@H](Nc3ncnc4ccc(C(F)(F)F)cc34)C2=O)[C@H](NC(=O)[C@H]2CC[C@H](C(=O)NCCCOCCCCOCCCNC(=O)[C@H]3CC(=O)N(C)[C@@H]3c3cccnc3)CC2)C1 [Example 194, (1r,4R)-N^1-((1R,2S,5R)-5-(Isopropyl(methyl)amino)-2-((S)-2-oxo-3-((6-(trifluoromethyl)quinazolin-4-yl)amino)pyrrolidin-1-yl)cyclohexyl)-N^4-(3-(4-(3-((2S,3S)-1-methyl-5-oxo-2-(pyridin-3-yl)pyrrolidine-3-carboxamido)propoxy)butoxy)propyl)cyclohexane-1,4-dicarboxamide] | 96% | 9.5415 | ≥ 100000 nM | – | 44.9%

Reference: patent publication US12521393B2, “Cytotoxicity targeting chimeras for CCR2-expressing cells” (GLAXOSMITHKLINE INTELLECTUAL PROPERTY DEVELOPMENT LIMITED, priority 2021, dated 2026)
